Source: patent publication US20240174622A1, “COMPOUND AND RADIOACTIVE LABELING COMPOUND” (NIHON MEDI-PHYSICS CO., LTD., priority 2021, published 2024)

System: LNCaP cells (PSMA-positive, human prostate cancer)
Experiment: Binding assay using cultured cells (LNCaP)
Type: cell-based
Settings: for binding to LNCaP cells on adding an excess amount of the PSMA inhibitor (2-PMPA): 2-PMPA final concentration 100 μM
Description: LNCaP cells (PSMA-positive, human prostate cancer) and PC-3 cells (PSMA-negative, human prostate cancer) were used. These cells were purchased from American Type Culture Collection and DS Biomedical, respectively. Each of the cells were cultured in RPMI 1640, which is manufactured by NACALAI TESQUE, INC. and contains antibiotics (penicillin and streptomycin) and 10% inactivated fetal bovine serum, at 37° C. under 5% CO2.
The LNCaP cells and PC-3 cells were each seeded on a 12 well plate at 4.0×10^5 cells/well, and left standing at 37° C. under 5% CO2 for 48 hours.
The culture medium was removed, and an assay medium (0.5% FBS-containing RPMI 1640 medium) solution (1 mL) containing [^111In]In-PSMA-DA1 or [^111In]In-PSMA-DB (37 kBq) was added. Thereafter, the plate was allowed to stand at 37° C. under 5% CO2 for 1 hour.
(§1) In the inhibition assays, after removing the culture medium, an assay medium (1 mL) solution containing: [^111In]In-PSMA-DA1 or [^111In]In-PSMA-DB (37 kBq); and 2-(phosphonomethyl) pentanedioic acid (2-PMPA) (PSMA inhibitor; final concentration: 100 μM) was added. Thereafter, the plate was allowed to stand at 37° C. under 5% CO2 for 1 hour.
After removing the assay medium, each well was washed with an assay medium (1 mL) containing neither the radiolabeled compound nor 2-PMPA, and the cells were lysed with 1 N aqueous sodium hydroxide solution (200 μL×2).
The radioactivity for each of the assay medium and the cell lysate was measured with a gamma counter. Separately, the total protein concentration in the cell lysate was calculated using BCA Protein Assay Kit, which is manufactured by Thermo Fisher Scientific K.K. The value (% ID/mg protein) obtained by dividing the percentage (% ID) of the sample's radioactivity amount to the added radioactivity amount by the total protein amount was calculated for each sample.
In the same manner as in Example 1-1 described above, LNCaP cells and PC-3 cells were cultured and cell-binding assay were performed. Evaluation was carried out by the same experimental procedure and statistical method as in Example 1-1, except that 0.5% FBS-containing RPMI 1640 medium (1 mL) containing [^111In]In-PtDA (37 kBq) was used.
LNCaP cells and PC-3 cells cultured in the same method as in Example 1-1 were each seeded on a 12 well plate at 4.0×10^5 cells/well, and left standing at 37° C. under 5% CO2 for 48 hours. The culture medium was removed, and an assay medium (0.5% FBS-containing RPMI 1640 medium) solution (1 mL) containing the radiolabeled compound (37 kBq each) in Examples 3-1 to 3-3 or Comparative Examples 2-1 to 2-2 was added. Thereafter, the plate was allowed to stand at 37° C. under 5% CO2 for 1 hour.
as §1, with “experiments,” for “assays,”, “mL)” for “mL) solution”, “the radiolabeled compound described above;” for “[^111In]In-PSMA-DA1 or [^111In]In-PSMA-DB (37 kBq);”
After removing the assay medium, each well was washed with assay medium (1 mL), and the cells were lysed with 1 N aqueous sodium hydroxide solution (200 μL×2).
Radioactivity of each of the cell lysates was measured with a gamma counter. Separately, the total protein concentration in the cell lysate was calculated using BCA Protein Assay Kit, which is manufactured by Thermo Fisher Scientific K.K. The value (% ID/mg protein) obtained by dividing the percentage (% ID) of the sample's radioactivity amount to the added radioactivity amount by the total protein amount was calculated for each sample.
LNCaP cells and PC-3 cells cultured in the same method as in Example 1-1 were each seeded on a 12 well plate at 4.0×10^5 cells/well, and left standing at 37° C. under 5% CO2 for 48 hours.
Thereafter, the plate was allowed to stand at 37° C. under 5% CO2 for 1 hour. […]

| Structure (SMILES) | binding to LNCaP cells on adding an excess amount of the PSMA inhibitor (2-PMPA) | binding ability to LNCaP cells compared to PC-3 cells (37° C., 1 hour) | binding to LNCaP cells with excess PSMA inhibitor (2-PMPA) (2-PMPA 100 μM) | binding to LNCaP cells (37° C., 1 hour) |
| --- | --- | --- | --- | --- |
| O=C([O-])CN1CCN(C(CCC(=O)NCCCC[C@H](NC(=O)N[C@@H](CCC(=O)O)C(=O)O)C(=O)O)C(=O)[O-])CCN(CC(=O)[O-])CCN(C(CCC(=O)Nc2ccccc2)C(=O)[O-])CC1.[111In+3] (some centres unmarked) [[^111In]In-PSMA-DB, reference compound] | significantly reduced | high binding ability |  |  |
| O=C(O)CC[C@H](NC(=O)N[C@@H](CCCCNC(=O)[C@H](Cc1ccc2ccccc2c1)NC(=O)[C@H]1CC[C@H](CNC(=O)CCC(C(=O)O)N2CCN(CC(=O)O)CCN(C(CCC(=O)N[C@@H](CCCCNC(=O)CCCc3ccc(I)cc3)C(=O)O)C(=O)O)CCN(CC(=O)O)CC2)CC1)C(=O)O)C(=O)O (some centres unmarked) [[^111In]In-PSMA-NAT-DA1, metal not drawn] | significantly reduced | high binding ability |  |  |
| O=C([O-])CN1CCN(C(CCC(=O)NCCCC[C@H](NC(=O)N[C@@H](CCC(=O)O)C(=O)O)C(=O)O)C(=O)[O-])CCN(CC(=O)[O-])CCN(C(CCC(=O)N[C@@H](CCCCNC(=O)CCCc2ccc(I)cc2)C(=O)O)C(=O)[O-])CC1.[111In+3] (some centres unmarked) [[^111In]In-PSMA-DA1] | significantly reduced | high binding ability |  |  |
| O=C([O-])CN1CCN(C(CCC(=O)NCCC(=O)N2Cc3ccccc3-c3c(nnn3CCOCCOCCOCCOCCC(=O)NCCCC[C@H](NC(=O)N[C@@H](CCC(=O)O)C(=O)O)C(=O)O)-c3ccccc32)C(=O)[O-])CCN(CC(=O)[O-])CCN(C(CCC(=O)N[C@@H](CCCCNC(=O)CCCc2ccc(I)cc2)C(=O)O)C(=O)[O-])CC1.[111In+3] (some centres unmarked) [[^111In]In-PtDA] |  |  | 0.36 % ID/mg protein | 15 % ID/mg protein |
